Experimental data published in patent US20170281728A1, “METHOD FOR TREATING CANCER USING TETRADRINE” (Board of Supervisors of Louisiana State University and …, priority 2016, published 2017).

B1: TRAIL: protein functioning as a ligand that induces apoptosis; cytokine binding death receptors DR4 and DR5 (protein, UniProt P50591 1-281, looked up)
Tumor necrosis factor ligand …: MAMMEVQGGPSLGQTCVLIVIFTVLLQSLCVAVTYVYFTNELKQMQDKYSKSGIACFLKEDDSYWDPNDEESMNSPCWQVKWQLRQLVRKMILRTSEETISTVQEKQQNISPLVRERGPQRVAAHITGTRGRSNTLSSPNSKNEKALGRKINSWESSRSGHSFLSNLHLRNGELVIHEKGFYYIYSQTYFRFQEEIKENTKNDKQMVQYIYKYTSYPDPILLMKSARNSCWSKDAEYGLYSIYQGGIFELKENDRIFVSVTNEHLIDMDHEASFFGAFLVG

Experiments:
DR4 [1] = assay: DR4 protein level by western blotting, C4-2b cells; type: cell-based; settings: 20 μM TET, 0-48 hours, GAPDH loading control
Experimental: (§1) LNCaP and C4-2b cells were used as model cell lines that show resistance to TRAIL. […] In the present study we evaluated the effects of TET alone or in combination with TRAIL and TNF-α. Prostate cancer cell lines LNCaP and LNCaP derived C4-2b were used for this study. Cell lines were treated with TET, TRAIL, or TNF-αalone or in various combinations for different time points. mRNA expression was quantitated via Real Time-PCR and changes in protein expression were analyzed by Western Blot analysis. Cytotoxicity was evaluated using the Crystal violet and MTT survival assay. Turning to FIGS. 2A-2C, C4-2b cells were treated with 20 μM TET for 0-48 hours. After the treatments cells were lysed and DR4, DR5 and TNFR1 levels were detected by western blotting. Similarly, in FIGS. 3-5, densiomentry fold increase for DR4, DR5 and TNFR1 western blots is shown. The fold increase was calculated with the density of untreated LNCaP cells as a reference. GAPDH was used as loading control. Averages are representative of 3 independent experiments. Error bars represent standard deviation.

DR4 [2] = assay: DR4 mRNA expression by reverse transcriptase PCR, C4-2b cells; type: cell-based; settings: 20 μM Tet, 0-48 hours, normalized to GAPDH
Experimental: (§2) LNCaP and C4-2b cells were used as model cell lines that show resistance to TRAIL. […] In the present study we evaluated the effects of TET alone or in combination with TRAIL and TNF-α. Prostate cancer cell lines LNCaP and LNCaP derived C4-2b were used for this study. Cell lines were treated with TET, TRAIL, or TNF-αalone or in various combinations for different time points. mRNA expression was quantitated via Real Time-PCR and changes in protein expression were analyzed by Western Blot analysis. Cytotoxicity was evaluated using the Crystal violet and MTT survival assay. Turning to FIGS. 6-11, LNCaP and C4-2b cells were incubated in the presence of 20 μM of Tet for different time points (0-48 hours). Total RNA was prepared from the cells and cDNA was transcribed. Reverse transcriptase PCR was performed to determine the mRNA levels of DR4, DR5 and TNF-α. GAPDH was used for normalization. Each data point represents mean+/−standard deviation of three independent gels.

TNFR1 [3] = assay: TNFR1 protein level (array / western blot densitometry), LNCaP cells; type: cell-based; settings: 20 μM TET, versus untreated cells
Experimental: as §1, with “assay. […] LNCaP cells were either untreated or treated with 20 μM TET for 24 hours. Arrays were incubated with 400 μg of each cell lysate. Data shown in FIG. 1 are from a 1 minute exposure to X-ray film. […] Fold increase was calculated with the density of untreated LNCaP cells as a reference. Averages are representative of 2 independent experiments. Error bars represent standard deviation.” for “assay.”, “Averages are representative of 3 independent experiments. Error bars represent standard deviation.” left out

DR5 [4] = assay: DR5 protein level (array / western blot densitometry), LNCaP cells; type: cell-based; settings: 20 μM TET, versus untreated cells
Experimental: as §1, with “assay. […] LNCaP cells were either untreated or treated with 20 μM TET for 24 hours. Arrays were incubated with 400 μg of each cell lysate. Data shown in FIG. 1 are from a 1 minute exposure to X-ray film. […] Fold increase was calculated with the density of untreated LNCaP cells as a reference. Averages are representative of 2 independent experiments. Error bars represent standard deviation.” for “assay.”, “Averages are representative of 3 independent experiments. Error bars represent standard deviation.” left out

LNCaP cells = assay: Cytotoxicity by crystal violet staining and MTT survival assay, LNCaP cells; type: cell-based; settings: for response of cells following exposure to the agent alone: TRAIL or TNF-α alone
Experimental: (§3) LNCaP and C4-2b cells were used as model cell lines that show resistance to TRAIL. […] In the present study we evaluated the effects of TET alone or in combination with TRAIL and TNF-α. Prostate cancer cell lines LNCaP and LNCaP derived C4-2b were used for this study. Cell lines were treated with TET, TRAIL, or TNF-αalone or in various combinations for different time points. mRNA expression was quantitated via Real Time-PCR and changes in protein expression were analyzed by Western Blot analysis. Cytotoxicity was evaluated using the Crystal violet and MTT survival assay.
(§4) Turning to FIGS. 12-15, pretreatment of both cell lines with TET for 12 hours, followed by TRAIL and TNF-α treatment for another 24 hours increased the apoptosis inducing potential of TRAIL and TNF-α in these cells. […] For FIGS. 12 and 14, LNCap (FIG. 12) and C4-2b (FIG. 14) cells treated with or without TET, TRAIL, and TNFα were crystal violet stained. Wells are representative of at least three repeats. For FIGS. 13 and 15, LNCap (FIG. 13) and C4-2b (FIG. 15) cells were subjected to MTT assay using the same experimental plan as in FIGS. 12, 14 respectively. Data were normalized to the untreated control at the respective concentrations of TET, TRAIL and TNF-α. Data are representative of at least three repeats.

TNFR1 [5] = assay: TNFR1 protein level by western blotting, C4-2b cells; type: cell-based; settings: 20 μM TET, 0-48 hours, GAPDH loading control
Experimental: as §1

TNFR1 [6] = assay: TNFR1 mRNA expression by reverse transcriptase PCR, LNCaP cells; type: cell-based; settings: 20 μM Tet, 0-48 hours, normalized to GAPDH
DR4 [7] = assay: DR4 mRNA expression by reverse transcriptase PCR, LNCaP cells; type: cell-based; settings: 20 μM Tet, 0-48 hours, normalized to GAPDH
Experimental: as §2

DR4 [8] = assay: DR4 protein level (array / western blot densitometry), LNCaP cells; type: cell-based; settings: 20 μM TET, versus untreated cells
Experimental: as §1, with “assay. […] LNCaP cells were either untreated or treated with 20 μM TET for 24 hours. Arrays were incubated with 400 μg of each cell lysate. Data shown in FIG. 1 are from a 1 minute exposure to X-ray film. […] Fold increase was calculated with the density of untreated LNCaP cells as a reference. Averages are representative of 2 independent experiments. Error bars represent standard deviation.” for “assay.”, “Averages are representative of 3 independent experiments. Error bars represent standard deviation.” left out

DR5 [9] = assay: DR5 mRNA expression by reverse transcriptase PCR, C4-2b cells; type: cell-based; settings: 20 μM Tet, 0-48 hours, normalized to GAPDH
Experimental: as §2

C4-2b cells = assay: Cytotoxicity by crystal violet staining and MTT survival assay, C4-2b cells; type: cell-based; settings: for response of cells following exposure to the agent alone: TRAIL or TNF-α alone
Experimental: as §3, §4

prostate cancer cells [10] = assay: Apoptosis in prostate cancer cells in vitro; type: cell-based
prostate cancer cells [11] = assay: Apoptosis in prostate cancer cells in vivo
TNFR1 [12] = assay: TNFR1 mRNA expression by reverse transcriptase PCR, C4-2b cells; type: cell-based; settings: 20 μM Tet, 0-48 hours, normalized to GAPDH
DR5 [13] = assay: DR5 protein level by western blotting, C4-2b cells; type: cell-based; settings: 20 μM TET, 0-48 hours, GAPDH loading control
Experimental: as §1

DR5 [14] = assay: DR5 mRNA expression by reverse transcriptase PCR, LNCaP cells; type: cell-based; settings: 20 μM Tet, 0-48 hours, normalized to GAPDH
Experimental: as §2

[15] = TET pretreatment 12 hours, then TRAIL and TNF-α for another 24 hours

Molecule	protein level of DR4 (DR4 [1])	mRNA level of DR4 (DR4 [2])	protein level of TNFR1 (TNFR1 [3])	protein level of DR5 (DR5 [4])	apoptosis inducing potential of TRAIL and TNF-α after TET pretreatment (LNCaP cells; [15])	apoptosis response to soluble h-TRAIL and TNF-α in combination with TET (LNCaP cells; TET treated cells in vitro)	protein level of TNFR1 (TNFR1 [5])	mRNA level of TNFR1 (TNFR1 [6])	mRNA level of DR4 (DR4 [7])	protein level of DR4 (DR4 [8])	mRNA level of DR5 (DR5 [9])	apoptosis inducing potential of TRAIL and TNF-α after TET pretreatment (C4-2b cells; [15])	apoptosis response to soluble h-TRAIL and TNF-α in combination with TET (C4-2b cells; TET treated cells in vitro)	apoptosis in prostate cancer cells (prostate cancer cells [10])	apoptosis in prostate cancer cells (prostate cancer cells [11])	mRNA level of TNFR1 (TNFR1 [12])	protein level of DR5 (DR5 [13])	mRNA level of DR5 (DR5 [14])	response of cells following exposure to the agent alone (LNCaP cells)	response of cells following exposure to the agent alone (C4-2b cells)
COc1ccc2cc1Oc1ccc(cc1)C[C@H]1c3cc(c(OC)cc3CCN1C)Oc1c(OC)c(OC)cc3c1[C@H](C2)N(C)CC3 [TET, Tetrandrine]	increased	increased	increased	increased	increased	synergistic apoptosis response	increased	increased	increased	increased	increased	increased	synergistic apoptosis response	promotes apoptosis	promotes apoptosis	increased	increased	increased		
TNF-α																			did not show a significant response	did not show a significant response
B1																			did not show a significant response	did not show a significant response
